Test results reported in ChEMBL document CHEMBL4396865, “Current advances of triazole alcohols derived from fluconazole: Design, in vitro and in silico studies” (2019).
In brackets after ≈: the same amount, converted by molar mass.

Key:
Format in all cases: functional
[1] = system: Candida albicans; test: Antifungal activity against Candida albicans after 48 hrs by NCCLS protocol based method
[2] = system: Candida parapsilosis; test: Antifungal activity against Candida parapsilosis after 48 hrs by NCCLS protocol based method; conditions: Lodderomyces parapsilosis
[3] = system: Candida parapsilosis; test: Antifungal activity against fluconalzole-susceptible Candida parapsilosis after 24 hrs; conditions: Lodderomyces parapsilosis
[4] = system: Candida albicans; test: Antifungal activity against fluconalzole-susceptible Candida albicans after 24 hrs
[5] = system: Pichia kudriavzevii; test: Antifungal activity against Candida krusei CK8; conditions: Pichia kudriavzevii, CK8; read-out: MIC
[6] = system: Candida parapsilosis; test: Antifungal activity against Candida parapsilosis CAPA2; conditions: Lodderomyces parapsilosis, CAPA2; read-out: MIC
[7] = system: Pichia kudriavzevii; test: Antifungal activity against Candida krusei CK506; conditions: Pichia kudriavzevii, CK506; read-out: MIC
[8] = system: Aspergillus fumigatus; test: Antifungal activity against Aspergillus fumigatus AF98003
[9] = system: Candida parapsilosis; test: Antifungal activity against Candida parapsilosis CAPA1; conditions: Lodderomyces parapsilosis, CAPA1; read-out: MIC
[10] = system: Candida albicans; test: Antifungal activity against Candida albicans CAAL-74; conditions: Candida albicans, CAAL-74; read-out: MIC
[11] = system: Nakaseomyces glabratus; test: Antifungal activity against Candida glabrata CG468; conditions: Nakaseomyces glabratus, CG468; read-out: MIC
[12] = system: Candida albicans; test: Antifungal activity against Candida albicans CA98001; conditions: Candida albicans, CA98001; read-out: MIC
[13] = system: Candida albicans; test: Antifungal activity against Candida albicans DSY735; conditions: Candida albicans, DSY735; read-out: MIC
[14] = system: Cryptococcus neoformans; test: Antifungal activity against Cryptococcus neoformans; conditions: Cryptococcus neoformans
[15] = system: Aspergillus fumigatus; test: Antifungal activity against Aspergillus fumigatus; conditions: Aspergillus fumigatus
[16] = system: Trichophyton rubrum; test: Antifungal activity against Trichophyton rubrum; conditions: Trichophyton rubrum
[17] = system: Candida parapsilosis; test: Antifungal activity against Candida parapsilosis; conditions: Lodderomyces parapsilosis
[18] = system: Candida tropicalis; test: Antifungal activity against Candida tropicalis; conditions: Candida tropicalis
[19] = system: Candida albicans; test: Antifungal activity against Candida albicans ATCC 76615 after 24 hrs by microbroth dilution method; conditions: ATCC 76615, 24 h
[20] = system: Candida albicans; test: Potency index, ratio of fluconazole MIC to test compound MIC for Candida albicans
[21] = system: Candida albicans; test: Antifungal activity against Candida albicans; conditions: Candida albicans
[22] = system: Kluyveromyces marxianus; test: Antifungal activity against Candida kefyr; conditions: Kluyveromyces marxianus

Molecule `C[C@H](CCCn1cc(CC(O)(Cn2cncn2)c2ccc(F)cc2F)nn1)[C@H]1CC[C@H]2[C@@H]3CC[C@@H]4C[C@H](O)CC[C@]4(C)[C@H]3C[C@H](O)[C@]12C` (some centres not stated) has an MIC [1] of 3.12 to 6.25 µg/mL (≈ 4.68 to 9.37 µM) and an MIC [2] of 3.12 to 6.25 µg/mL (≈ 4.68 to 9.37 µM).

For `C[C@H](CCCn1cc(CC(O)(Cn2cncn2)c2ccc(F)cc2F)nn1)[C@H]1CC[C@H]2[C@@H]3[C@H](O)C[C@@H]4C[C@H](O)CC[C@]4(C)[C@H]3C[C@H](O)[C@]12C` (some centres not stated), the MIC [1] was 3.12 to 6.25 µg/mL (≈ 4.57 to 9.15 µM) and the MIC [2] was 3.12 to 6.25 µg/mL (≈ 4.57 to 9.15 µM).

Molecule `OC(Cn1cncn1)(Cn1cnc(SCc2ccccc2)n1)c1ccc(F)cc1F` (configuration not stated) has an MIC [3] of 0.063 to 1 µg/mL (≈ 0.147 to 2.33 µM) and an MIC [4] of 0.063 to 1 µg/mL (≈ 0.147 to 2.33 µM).

Work on `COC(=O)CC[C@@H](C)[C@H]1CC[C@H]2[C@@H]3CC[C@@H]4C[C@@H](n5cc(CC(O)(Cn6cncn6)c6ccc(F)cc6F)nn5)CC[C@]4(C)[C@H]3C[C@H](O)[C@]12C` (some centres not stated) yielded an MIC [1] of 3.12 to 6.25 µg/mL (≈ 4.49 to 8.99 µM) and an MIC [2] of 3.12 to 6.25 µg/mL (≈ 4.49 to 8.99 µM).

Molecule `CN(Cc1ccc(S(=O)(=O)Nc2ccc([N+](=O)[O-])cc2)cc1)CC(O)(Cn1cncn1)c1ccc(F)cc1F` (configuration not stated) has an MIC [5] of 0.001 to 0.069 µg/mL (≈ 0.00179 to 0.124 µM), an MIC [6] of 0.001 to 0.069 µg/mL (≈ 0.00179 to 0.124 µM) and an MIC [7] of 0.001 to 0.069 µg/mL (≈ 0.00179 to 0.124 µM). The MIC [8] was 0.767 to 3.57 µg/mL (≈ 1.37 to 6.39 µM), the MIC [9] was 0.001 to 0.069 µg/mL (≈ 0.00179 to 0.124 µM) and the MIC [10] was 0.001 to 0.069 µg/mL (≈ 0.00179 to 0.124 µM). For the same molecule, the MIC [11] was 0.001 to 0.069 µg/mL (≈ 0.00179 to 0.124 µM), the MIC [12] was 0.001 to 0.069 µg/mL (≈ 0.00179 to 0.124 µM) and the MIC [13] was 0.001 to 0.069 µg/mL (≈ 0.00179 to 0.124 µM).

Work on `CCCNS(=O)(=O)c1ccc(CN(C)CC(O)(Cn2cncn2)c2ccc(F)cc2F)cc1` (configuration not stated) yielded an MIC [5] of 0.001 to 0.069 µg/mL (≈ 0.00209 to 0.144 µM), an MIC [6] of 0.001 to 0.069 µg/mL (≈ 0.00209 to 0.144 µM) and an MIC [7] of 0.001 to 0.069 µg/mL (≈ 0.00209 to 0.144 µM). It also gave an MIC [8] of 0.767 to 3.57 µg/mL (≈ 1.6 to 7.44 µM), an MIC [9] of 0.001 to 0.069 µg/mL (≈ 0.00209 to 0.144 µM) and an MIC [10] of 0.001 to 0.069 µg/mL (≈ 0.00209 to 0.144 µM). For the same molecule, the MIC [11] was 0.001 to 0.069 µg/mL (≈ 0.00209 to 0.144 µM), the MIC [12] was 0.001 to 0.069 µg/mL (≈ 0.00209 to 0.144 µM) and the MIC [13] was 0.001 to 0.069 µg/mL (≈ 0.00209 to 0.144 µM).

`OC(CN1CCC(OCc2ccccc2Cl)CC1)(Cn1cncn1)c1ccc(F)cc1F` (configuration not stated) showed an MIC80 [14] of 0.01 to 2.33 µM (≈ 0.00463 to 1.08 µg/mL), an MIC80 [15] of 0.55 to 2.33 µM (≈ 0.255 to 1.08 µg/mL) and an MIC80 [16] of 0.03 to 0.15 µM (≈ 0.0139 to 0.0694 µg/mL). The MIC80 [17] was 0.01 to 2.33 µM (≈ 0.00463 to 1.08 µg/mL), the MIC80 [18] was 0.01 to 2.33 µM (≈ 0.00463 to 1.08 µg/mL) and the MIC80 [19] was 0.01 to 2.33 µM (≈ 0.00463 to 1.08 µg/mL). It also gave a Ratio [20] of 82, an MIC80 [21] of 0.01 µM (≈ 0.00463 µg/mL) and an MIC80 [22] of 0.01 to 2.33 µM (≈ 0.00463 to 1.08 µg/mL).

Work on `OC(Cn1cncn1)(Cn1cnc(SCc2ccc(Cl)cc2)n1)c1ccc(F)cc1F` (configuration not stated) yielded an MIC [3] of 0.063 to 1 µg/mL (≈ 0.136 to 2.16 µM) and an MIC [4] of 0.063 to 1 µg/mL (≈ 0.136 to 2.16 µM).
